{"source": "paper PMC6511062", "about": "“Preclinical candidate for the treatment of visceral leishmaniasis that acts through proteasome inhibition” (Proceedings of the National Academy of Sciences of the …, 2019)", "key": {"[1]": {"test_system": "Salmonella typhimurium TA1535, TA1537, TA98, TA100 and Escherichia coli WP2uvrA(pKM101)", "test": "Bacterial mutation screening assay (Ames test), overall outcome", "assay_type": "cell-based", "conditions": "presence and absence of S9-mix", "experimental": "i. Bacterial Mutation (Ames) Assay\nCompound 6 was tested in a bacterial mutation screening assay (Ames test) with Salmonella typhimurium TA1535, TA1537, TA98, TA100 and Escherichia coli WP2uvrA(pKM101) in the presence and absence of an exogenous mammalian oxidative metabolism system (S9-mix). The maximum concentration tested and […]\nCompound 6a was tested in a bacterial mutation screening assay (Ames test) with […]\nCompound 7a was tested in a bacterial mutation screening assay (Ames test) with […]\n(§1) The bacterial mutation screening assay was a plate incorporation test carried out as previously described15 and according to current methodology. […]"}, "[2]": {"test_system": "L. donovani axenic amastigotes", "test": "Axenic amastigote rate-of-kill assay", "assay_type": "cell-based, Leishmania donovani", "experimental": "(§2) T. cruzi4, Leishmania donovani axenic amastigote, cidal axenic amastigote and intra-macrophage drug sensitivity assays were conducted as previously described5,6.\n(§3) The rate of kill of compound 8 was determined in axenic amastigotes using the previously described cidal axenic assay5, with one minor modification. Instead of a single readout at 72 h, multiple identical plates were used and read at different time points (24, 48, 72 h). Rate of kill curves showing the luminescence signal at each time point for each concentration were plotted.\n5. Intrinsic clearance (CLint)\nTest compound (0.5 µM) was incubated with female CD1 mouse liver microsomes (Xenotech LLC TM; 0.5 mg/mL 50 mM potassium phosphate buffer, pH7.4) and the reaction started with addition of excess NADPH (8 mg/mL 50 mM potassium phosphate buffer, pH7.4). Immediately, at time zero, then at 3, 6, 9, 15 and 30 minutes an aliquot (50 µL) of the incubation mixture was removed and mixed with acetonitrile (100 µL) to stop the reaction. […]\n(§4) XLfit (idbs, UK) was used to calculate the exponential decay and consequently the rate constant (k) from the ratio of peak area of test compound to internal standard at each time-point. The rate of intrinsic clearance (CLint) of each test compound was then calculated using the following calculation: […]\nAmastigote levels (as RLU, relative luminescence units) for each tested concentration plotted against time. […]"}, "[3]": {"test": "Pharmacokinetics in male beagle dogs", "assay_type": "in vivo, dog", "experimental": "(§5) 5. Intrinsic clearance (CLint) […]\n6. Pharmacokinetic studies.\nMouse pharmacokinetic studies were conducted in male CD-1 mice and male beagle dogs. 3 animals per group were used for each study performed.\nA dose of 3 mg/kg was administered intravenously, in a bolus form to mice and infused over a 30 min period to dogs. For all the intravenous studies compound were dissolved in 5% DMSO/20% kleptose in saline.\nA dose of 10 mg/kg was orally administered by gavage to the two species in a suspension of 1% methylcellulose to investigate oral pharmacokinetics.\nPeripheral blood samples were obtained at 5, 15, 30 min, 1, 2, 4, 6 ,8 and 24 h after intravenous administration and 15, 30, 45 min,1, 2, 4, 6, 8 and 24 h after oral administration. Blood was 1/2 diluted with milliQ water and immediately frozen on dry ice until analysis. Quantification was performed by means of LC-MS/MS (API4000), with a lower limit of quantification of 1 ng/mL.\nPharmacokinetic parameters, namely clearance (CL), volume of distribution at steady state (Vss) and bioavailability (F%), were estimated using Phoenix, WinNonLin […]\nData analysis and calculation of pharmacokinetic parameters was performed using Phoenix, WinNonLin Version 6.3.\nFollowing the intravenous administration, the whole blood clearance was calculated"}, "[4]": {"target": "chymotrypsin-like activity of the L. donovani proteasome (Leishmania donovani, UniProt A0A3S7XA80+A0ACM8QMP6, G197C/T30A)", "sequence (A0ACM8QMP6 entry or part of it, stated change not applied)": "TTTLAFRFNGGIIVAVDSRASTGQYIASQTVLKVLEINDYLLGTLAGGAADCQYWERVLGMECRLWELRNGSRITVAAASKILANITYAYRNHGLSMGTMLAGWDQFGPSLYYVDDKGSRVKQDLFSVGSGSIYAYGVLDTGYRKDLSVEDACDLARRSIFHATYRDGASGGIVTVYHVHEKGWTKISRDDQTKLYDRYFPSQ", "sequence (A0A3S7XA80 whole entry, stated change not applied)": "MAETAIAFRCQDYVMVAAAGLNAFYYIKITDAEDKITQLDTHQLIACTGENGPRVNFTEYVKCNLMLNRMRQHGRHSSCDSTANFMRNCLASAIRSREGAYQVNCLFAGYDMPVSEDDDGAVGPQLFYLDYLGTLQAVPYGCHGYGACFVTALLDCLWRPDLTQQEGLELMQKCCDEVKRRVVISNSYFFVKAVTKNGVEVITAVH", "test": "biochemical"}, "TA98": {"test_system": "TA98", "test": "Ames test, strain TA98", "experimental": "oxidative metabolism system (S9-mix). The maximum concentration tested and […]\nCompound 7a was tested in a bacterial mutation screening assay (Ames test) with Salmonella typhimurium TA1535, TA1537, TA98, TA100 and Escherichia coli WP2uvrA(pKM101) in the presence and absence of an exogenous mammalian […]\nas §1"}, "[5]": {"test_system": "L. donovani axenic amastigotes", "test": "L. donovani axenic amastigote drug sensitivity", "assay_type": "cell-based", "conditions": "Leishmania donovani, concentration stated as 1X IC50, read-out: whole cell IC50", "experimental": "as §2, §3, §5, §4\nCompounds were dispensed into black 384-well assay plates (Greiner) by acoustic dispensing (LabCyte ECHO). […] Three proteasome activities were measured using a commercially available indirect enzyme-based luminescent assay kit (Promega) with Suc-LLVY-aminoluciferin, Z-LRR-aminoluciferin and Z-nLPnLD-aminoluciferin used as substrates for chymotrypsin-like, trypsin-like and caspase-like activities, respectively. […]"}, "[6]": {"conditions": "male, beagle, whole blood, dog, 3 mg/kg iv 0.5 h infusion"}}}
{"molecule": "O=C(Nc1ccc(F)c(-c2ccn3c(N4CCOCC4)cnc3n2)c1)N1CCCC1", "note": "[Compound 8]", "values": [{"measurement": "AMES", "setting": "[1]", "value": "negative"}, {"measurement": "minimum concentration inducing parasite cell death", "setting": "[2]; after 72 h", "value": 620, "unit": "nM"}, {"measurement": "time to kill", "setting": "[2]; as compound concentrations were increased", "value": 48, "unit": "h"}, {"measurement": "blood clearance", "setting": "[3]; dog", "value": 30, "unit": "mL/min per kilogram"}, {"measurement": "Cl (%LBF)", "setting": "[3]; dog, 3 mg/kg iv", "value": 53, "unit": "%"}, {"measurement": "Vss", "setting": "[3]; dog, 3 mg/kg iv 0.5 h infusion, 3 mg/kg", "value": 1.3, "unit": "L/kg"}, {"measurement": "Vd", "setting": "[3]; male, beagle, dog, whole blood, iv, 3 mg/kg, dog, 3 mg/kg iv 0.5 h infusion, read-out: Vss", "value": "1.34 ± 0.381", "unit": "L/kg"}, {"measurement": "clearance", "setting": "[3]; [6]", "value": "29.6 ± 6.06", "unit": "mL/min/kg"}, {"measurement": "half-life", "setting": "[3]; [6]", "value": "31.2 ± 4.8", "unit": "min"}, {"measurement": "bioavailability", "setting": "[3]; whole blood, Beagle male dog, 10 mg/kg po, read-out: F (oral bioavailability)", "value": 46, "unit": "%"}, {"measurement": "IC50", "setting": "[4]", "value": "> 100000", "unit": "nM"}, {"measurement": "Mean revertants per plate", "setting": "TA98; with S9-mix, dose level 50 per plate", "value": 23.0}, {"measurement": "Mean revertants per plate", "setting": "TA98; with S9-mix, dose level 150 per plate", "value": 25.0}, {"measurement": "Mean revertants per plate", "setting": "TA98; with S9-mix, dose level 500 per plate", "value": 30.0}, {"measurement": "Mean revertants per plate", "setting": "TA98; with S9-mix, dose level 1500 per plate", "value": 24.5}, {"measurement": "Mean revertants per plate", "setting": "TA98; with S9-mix, dose level 2500 per plate", "value": 25.5}, {"measurement": "Mean revertants per plate", "setting": "TA98; with S9-mix, dose level 5000 per plate", "value": 25.0}, {"measurement": "Mean revertants per plate", "setting": "TA98; without S9-mix, dose level 50 per plate", "value": 22.5}, {"measurement": "Mean revertants per plate", "setting": "TA98; without S9-mix, dose level 150 per plate", "value": 19.0}, {"measurement": "Mean revertants per plate", "setting": "TA98; without S9-mix, dose level 500 per plate", "value": 14.5}, {"measurement": "Mean revertants per plate", "setting": "TA98; without S9-mix, dose level 1500 per plate", "value": 19.5}, {"measurement": "Mean revertants per plate", "setting": "TA98; without S9-mix, dose level 2500 per plate", "value": 16.5}, {"measurement": "Mean revertants per plate", "setting": "TA98; without S9-mix, dose level 5000 per plate", "value": 18.0}, {"measurement": "IC50", "setting": "[5]", "value": 300, "unit": "nM"}]}
